Experimental data taken from PubChem BioAssay (NCI).
“And” between values parts separate entries of the source, which are not always exact repeats. Equal entries are not always repeated.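 Protocol summary: plate cells (96-well), add compound at 5 concentrations, incubate 48 h, interpolate endpoints linearly. GI50 marks 50% less growth. The concentration for full growth arrest is given as TGI.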

Tests used:
Assay in all cases: NCI tumour cell line growth inhibition, 48 h
DMS 114 small cell lung = test system: DMS 114 small cell lung
DMS 273 small cell lung = test system: DMS 273 small cell lung
KM20L2 colon = test system: KM20L2 colon
RXF-631 renal = test system: RXF-631 renal
LXFL 529 NSCLC = test system: LXFL 529 NSCLC
M19-MEL melanoma = test system: M19-MEL melanoma
SNB-78 CNS = test system: SNB-78 CNS
MDA-N = test system: MDA-N

Structure (SMILES)	TGI (DMS 114 small cell lung) [µM]	TGI (DMS 273 small cell lung) [µM]	TGI (KM20L2 colon) [µM]	TGI (RXF-631 renal) [µM]	TGI (LXFL 529 NSCLC) [µM]	TGI (M19-MEL melanoma) [µM]	TGI (SNB-78 CNS) [µM]	GI50 (M19-MEL melanoma) [µM]	GI50 (SNB-78 CNS) [µM]	GI50 (DMS 273 small cell lung) [µM]	GI50 (KM20L2 colon) [µM]	GI50 (LXFL 529 NSCLC) [µM]	TGI (MDA-N)	GI50 (MDA-N) [µM]
COC(=O)C1=C(C(=O)OC)C2C=CC1C1C(Cl)=C(Cl)C21 (configuration not stated)	> 100	> 100	> 100	> 100	> 100	> 100								
O=C1OCc2c1cc1ccc(O)c(OC3OC(CO)C(O)C(O)C3O)c1c2-c1ccc2c(c1)OCO2 (configuration not stated)	> 100	> 100	> 100	> 100	> 100	> 100	> 100	38.2						
OCCC1(O)CCC(O)CC1 (configuration not stated)	> 100	> 100			> 100	> 100	> 100							
CC(C)CC(=O)[O-].CC(C)CC(=O)[O-].N.N.N.N.[Co+3].[O-][Cl+3]([O-])([O-])[O-]		> 100	> 100		> 100		> 100		> 100	> 100	> 100	> 100		
CCCCCCCCCCCCCC(=O)OC1CC(=O)OC1CO (configuration not stated)	> 100	> 100	> 100		> 100	> 100	> 100							
Clc1ccc(C2N3CCCCC3[C@@H]3c4[nH]c5ccccc5c4CCN23)cc1 (some centres not stated)	> 100	> 100	96.5		> 100	94.7	> 100							
CC12CC[C@@H](C(C)(C)O)C1[C@@H](O)CC1(C)C2CCC2[C@@]3(C)CC[C@H](O)C(C)(C)C3C(O)C[C@]21C (some centres not stated)	38.2		28.3	69	29.4	52.1	38.8							
CCCCNC1=C(C(=O)OCC)C(=O)CO1	> 100	> 100	> 100		> 100	> 100								
N#C/C(=C/c1ccsc1)C(=O)c1ccccc1	> 100	> 100	> 100		> 100	> 100	> 100							
CCOc1ccc2c(c1)[n+]([O-])c(S(=O)(=O)c1ccc(C)cc1)c(N)[n+]2[O-]	> 100		> 100		> 100	> 100	> 100							
CC(=O)Nc1ccccc1Sc1ccccc1	> 100	> 100	> 100	> 100	> 100	> 100	> 100							
COc1ccccc1C1C(C(=O)Nc2ccccc2)=C(C)NC(C)=C1C(=O)Nc1ccccc1	> 100	> 100	> 100	> 100	> 100	> 100	> 100							
COc1ccc2ccc3c(c2c1)CN1CCc2cc(OC)c(OC)cc2C1C3 (configuration not stated)	> 100	> 100	> 100	> 100	> 100		> 100							
COc1cnc2cc(C(=O)O)c3c([N+](=O)[O-])cccc3c2c1													> 100 µM	
CCCCCCCCCC[C@@H](O)[C@@H]1CC[C@H]([C@H]2CC[C@@H]([C@@H](O)CCCCCCCCCC[C@H]3CC(CC(C)=O)C(=O)O3)O2)O1 (some centres not stated)	19	32.8	52.7	38.3	19.5	46.5	37.2							
CC1OC(O[C@H]2C[C@@H](O)[C@]3(CO)[C@H]4[C@H](O)C[C@]5(C)[C@@H](C6=CC(=O)OC6)CC[C@]5(O)[C@@H]4CC[C@]3(O)C2)C(O)C(O)C1O (some centres not stated)													33.7 µM	18.8
Cc1cc2c(cc1C)[n+](=O)c(C(=O)CC(=O)C(=O)Nc1c(C(C)C)cccc1C(C)C)c(C)n2[O-]	> 100	> 100	> 100		> 100	> 100	> 100							
CCOC(=O)/C=C(/C(=O)OCC)n1cc(Cl)c(=O)n(CC(=O)OCC)c1=O													11.9 µM and 31.4 µM	16.4
Cc1ccc(S(=O)(=O)C(CC(=O)N2CCCC2)C(=O)c2ccccc2)cc1 (configuration not stated)	> 100	> 100		> 100	> 100		> 100							

Structure (SMILES)	TGI (DMS 114 small cell lung) [µM]	TGI (DMS 273 small cell lung) [µM]	TGI (KM20L2 colon) [µM]	TGI (RXF-631 renal) [µM]	TGI (LXFL 529 NSCLC) [µM]	TGI (M19-MEL melanoma) [µM]	TGI (SNB-78 CNS) [µM]	GI50 (M19-MEL melanoma) [µM]	GI50 (SNB-78 CNS) [µM]	GI50 (DMS 273 small cell lung) [µM]	GI50 (KM20L2 colon) [µM]	GI50 (LXFL 529 NSCLC) [µM]	TGI (MDA-N)	GI50 (MDA-N) [µM]
CNC(=O)OCc1c(COC(=O)NC)c(-c2ccc(Cl)c(Cl)c2)n2c1SCC2													42.7 µM	
O=C1CNCCCN2CCN(CCCNCC(=O)Nc3ccc(cc3)S(=O)(=O)c3ccc(cc3)NC(=O)CNCCCN3CCN(CCCNCC(=O)Nc4ccc(cc4)S(=O)(=O)c4ccc(cc4)N1)CC3)CC2													42.2 µM	
CC1CCC2(C(=O)O)CCC3(C)C(=CCC4C5(C)CC(O)C(O)C(C)(CO)C5C(O)CC43C)C2C1C (configuration not stated)													> 57.6 µM	
N#CC1(Cc2ccc(N)cc2)c2ccccc2C=CN1C(=O)c1ccccc1 (configuration not stated)	> 100	> 100	> 100		> 100	> 100	> 100							
COC(=O)C(=O)C(C(=O)C=C(C)C)C(=O)C(=O)Nc1cc(C(F)(F)F)ccc1Cl (configuration not stated)	> 100	> 100	> 100	> 100	> 100		> 100							
COc1cccc(-c2cc(=O)c3cc(N(C)C)ccc3[nH]2)c1													0.00774 µM and 0.00529 µM	0.00154
COc1ccc(CNc2cc(OC)c(OC)c(OC)c2)cc1	9.19	> 100	> 23.7	> 100	> 100	> 100	32.9							
O=C(N/N=C/c1ccccc1O)c1cccc([N+](=O)[O-])c1	39.3	> 100	> 100		> 100	66.2	> 100							
CN(C)CCC(=O)N1C/C(=C/c2ccccc2)C(=O)/C(=C\c2ccccc2)C1	4.1	3.26	2.89	10.6	5.51	2.83	16.1						3.71 µM	
O=C1C=CC(=Nc2ccc3c(c2)C(Br)c2ccccc2-3)O1 (configuration not stated)	> 100				> 100	> 100	> 100							
COC(=O)C[C@H]1CCC2(OCCO2)[C@]1(C)C(=O)OC	> 100	> 100		> 100	> 100	> 100	> 100							
N#CC(C(=N/O)/C(=N/O)C(C#N)c1ccc(Cl)cc1)c1ccc(Cl)cc1 (configuration not stated)	> 100	> 100	> 100		> 100	> 100	> 100							
CCOC(=O)NC(=O)c1cn(C2OC(COC(=O)CCCCCCCCC(=O)OCC3OC(n4cc(C(=O)NC(=O)OCC)c(=O)[nH]c4=O)C(O)C3O)C(O)C2O)c(=O)[nH]c1=O (configuration not stated)	> 100	> 100	> 100	> 100	> 100	> 100	> 100							
Cc1cc(N(CCOS(C)(=O)=O)CCOS(C)(=O)=O)ccc1C=Nc1ccc(-c2nc(Cc3ccccc3)sc2C)cc1	27.7	21.7	21.2		> 50.3	24.3	81.2						29 µM	
CCN(CC)c1c(C(=O)/C=C/c2ccccc2)c(-c2ccccc2)nn(C)c1=O	> 100	> 100	> 100		> 100	> 100								
CCCCCCCCCCCC(=O)CC(=O)c1c(O)cccc1O	34.6	32.6	43.8		32.2	34.2	41							
O=NN(Cc1ccc(Cl)cc1)C(C(=O)O)c1ccccc1 (configuration not stated)													> 100 µM	
COc1ccc2cc1Oc1ccc(cc1)CC1c3cc(c(OC)cc3CCN1C)Oc1c3c(cc4c1C(C2)N(C)CC4)OCO3 (configuration not stated)	17.5	17.2	6.18	36	25.6	12.9	30.7							
CCCCN(CCCC)C(=O)C(=O)C(C#N)c1ccc(C)cc1 (configuration not stated)	> 100	> 100	> 100		> 100	> 100	> 100							
